Values of other authors as cited in patent US10596205B2, “Topical medicament for skin and mucosal injuries” (REV PHARMA Corp., priority 2018, dated 2020).

Columns and labels:
[1] = test system: biofilm; details: animals, diet rich in the fatty acids
[2] = test system: Gram-positive microorganisms; details: in vitro study
[3] = test system: S. Mutans biofilm; details: for Biofilm biomass / Acidogenicity of the biofilm (pH drops): 10% sucrose then free fatty acid; for Acidogenicity of the biofilm (pH drops): compared with biofilms exposed to only 10% sucrose; for Enamel demineralization induced by sucrose: biofilms treated with the fatty acids

In the case of CCCCCCCCCCCC(=O)O [Lauric acid], the “Quantity of bacteria in biofilm” value [1] is given as “lower quantity of bacteria” and the Bacteriostatic effect [2] is given as “highly bacteriostatic”.

For CCCCC/C=C\C/C=C\CCCCCCCC(=O)O [linoleic, linoleic acid], the Biofilm biomass [3] is listed as “decline in biomass”, the “Acidogenicity of the biofilm (pH drops)” value [3] is listed as “lower pH drops” and the “Enamel demineralization induced by sucrose” value [3] is listed as “significantly lower reduction”. The “Quantity of bacteria in biofilm” value [1] was “lower quantity of bacteria”.

For CCCCCCCC/C=C\CCCCCCCC(=O)O [oleic, oleic acid], the Biofilm biomass [3] is listed as “decline in biomass”, the “Acidogenicity of the biofilm (pH drops)” value [3] is listed as “lower pH drops” and the “Enamel demineralization induced by sucrose” value [3] is listed as “significantly lower reduction”.
